Reference: PubChem BioAssay (NCI)
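96-well plates; 48 h exposure; 5 concentrations. Endpoints by linear interpolation between flanking doses. Not reached: highest tested concentration assigned. GI50 is the concentration that inhibits growth by half. The concentration for full growth arrest is given as TGI.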

Tests used:
Experiment in all cases: NCI anticancer screen, dose series, 48 h
[1] = tested on: RXF 393 renal
[2] = tested on: COLO 205 colon
[3] = tested on: HT29 colon
[4] = tested on: SK-MEL-2 melanoma
[5] = tested on: SF-539 CNS
[6] = tested on: HS 578T breast
[7] = tested on: OVCAR-5 ovarian
[8] = tested on: SF-268 CNS
[9] = tested on: A549 NSCLC
[10] = tested on: HCT-15 colon
[11] = tested on: A498 renal
[12] = tested on: LOX IMVI melanoma
[13] = tested on: SNB-19 CNS
[14] = tested on: PC-3 prostate
[15] = tested on: UO-31 renal
[16] = tested on: CAKI-1 renal
[17] = tested on: NCI-H226 lung
[18] = tested on: MDA-MB-435
[19] = tested on: NCI-H460 lung
[20] = tested on: HCC-2998 colon
[21] = tested on: MDA-MB-468 breast
[22] = tested on: KM12 colon
[23] = tested on: EKVX NSCLC
[24] = tested on: OVCAR-4 ovarian
[25] = tested on: UACC-257 melanoma
[26] = tested on: BT-549 breast
[27] = tested on: CCRF-CEM leukemia
[28] = tested on: OVCAR-3 ovarian
[29] = tested on: 786-0 renal

## COc1cc(/C=C/C(=O)c2cnn(-c3cc(=O)[nH]c4ccc(C)cc34)c2C)cc(OC)c1OC
[1]
  TGI: 5.13 µM
[2]
  GI50: 2.77 µM
  TGI: 8.8 µM
[3]
  GI50: 3.07 µM
  TGI: 10 µM
[4]
  GI50: 2.9 µM
  TGI: 11 µM
[5]
  GI50: 2.11 µM
  TGI: 4.79 µM
[6]
  GI50: 3.56 µM
  TGI: > 100 µM
[7]
  GI50: 3.25 µM
  TGI: 11.6 µM
[8]
  GI50: 3.43 µM
  TGI: 14.8 µM
[9]
  GI50: 3.17 µM
  TGI: 11.2 µM
[10]
  GI50: 1.92 µM
  TGI: 5.01 µM
[11]
  GI50: 18 µM
  TGI: 35.9 µM
[12]
  GI50: 1.54 µM
  TGI: 3.76 µM
[13]
  GI50: 3.11 µM
  TGI: 12 µM
[14]
  GI50: 6.04 µM
  TGI: 26.8 µM
[15]
  GI50: 2.98 µM
  TGI: 13.1 µM
[16]
  GI50: 3.75 µM
  TGI: 18.6 µM
[17]
  GI50: 2.64 µM
  TGI: 7.79 µM
[18]
  GI50: 3.02 µM
  TGI: 12.1 µM
[19]
  GI50: 1.86 µM
  TGI: 4.38 µM
[20]
  GI50: 2.98 µM
  TGI: 9.14 µM
[21]
  GI50: 1.58 µM
  TGI: 3.63 µM
[22]
  GI50: 3.24 µM
  TGI: 10.6 µM
[23]
  GI50: 2.84 µM
  TGI: 12.2 µM
[24]
  GI50: 3.85 µM
  TGI: 48.8 µM
[25]
  GI50: 4.85 µM
  TGI: 20.4 µM
[26]
  GI50: 2.43 µM
  TGI: 8.55 µM
[27]
  GI50: 2.28 µM
  TGI: 8.76 µM
[28]
  GI50: 2.79 µM
  TGI: 7.95 µM
[29]
  GI50: 3.52 µM
  TGI: 14.6 µM
